Measurements reported in US12404285B2, “KRAS G12D proteolysis targeting chimeras” (PAQ Therapeutics Inc., priority 2022, dated 2025).

These compounds were tested against T1, KRAS (G12D)-HiBit in AsPc-1-KRAS (G12D)-HiBit-KI cell (Homo sapiens, UniProt P01116, G12D) (assay: G12D HiBit assay). Conditions: 24 hours compound treatment, absolute DC50, read-out: Average PHA DC50.
T1 construct: host or cells: AsPc-1-KRAS (G12D)-HiBit-KI cells (knock-in line)
Type: cell-based
In short: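 AsPc-1 cells with HiBiT knocked into KRAS G12D, seeded at 5×10^3/well and held overnight, then treated 24 h with 10-point 3-fold dilutions (300 nM to 0.015 nM). Lytic Nano-Glo HiBiT luminescence expressed as % of 0.1% DMSO control; absolute DC50 from curve fit.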

T1 sequence (P01116 1-188 isoform P01116-2 G12D): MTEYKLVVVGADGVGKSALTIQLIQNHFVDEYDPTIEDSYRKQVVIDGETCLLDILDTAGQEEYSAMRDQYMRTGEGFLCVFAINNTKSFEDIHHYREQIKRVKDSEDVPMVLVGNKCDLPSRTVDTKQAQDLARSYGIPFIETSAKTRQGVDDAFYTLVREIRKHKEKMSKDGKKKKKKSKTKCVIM

| DC50 | SMILES |
| --- | --- |
| < 100 nM | C#Cc1c(F)ccc2cccc(-c3ncc4c(N5CC6CCC(C5)N6)nc(OC[C@@]56CCCN5[C@H](COC(=O)N5CCC(OCCc7cccc8c7n(C)c(=O)n8C7CCC(=O)NC7=O)CC5)CC6)nc4c3F)c12 (stereo partly drawn) [Compound 135, [(3S,8S)-8-[[4-(3,8-Diazabicyclo[3.2.1]octan-3-yl)-7-(8-ethynyl-7-fluoro-1-naphthyl)-8-fluoro-pyrido[4,3-d]pyrimidin-2-yl]oxymethyl]-1,2,3,5,6,7-hexahydropyrrolizin-3-yl]methyl 4-[2-[1-(2,6-dioxo-3-piperidyl)-3-methyl-2-oxo-benzimidazol-4-yl]ethoxy]piperidine-1-carboxylate] |
| < 100 nM | C#Cc1c(F)ccc2cccc(-c3ncc4c(N5CC6CCC(C5)N6)nc(OC[C@@]56CCCN5[C@H](COC(=O)N5CCC(OCCCc7ccc8c(c7)n(C)c(=O)n8C7CCC(=O)NC7=O)CC5)CC6)nc4c3F)c12 (stereo partly drawn) [Compound 136, [(3S,8S)-8-[[4-(3,8-Diazabicyclo[3.2.1]octan-3-yl)-7-(8-ethynyl-7-fluoro-1-naphthyl)-8-fluoro-pyrido[4,3-d]pyrimidin-2-yl]oxymethyl]-1,2,3,5,6,7-hexahydropyrrolizin-3-yl]methyl 4-[3-[1-(2,6-dioxo-3-piperidyl)-3-methyl-2-oxo-benzimidazol-5-yl]propoxy]piperidine-1-carboxylate] |
| ≥ 300 nM | C#Cc1c(F)ccc2cccc(-c3ncc4c(N5CC6CCC(C5)N6)nc(OC[C@@]56CCCN5[C@H](COC(=O)N5CCC(OCCCc7cccc8c7n(C)c(=O)n8C7CCC(=O)N(C)C7=O)CC5)CC6)nc4c3F)c12 (stereo partly drawn) [Compound 144, [(3S,8S)-8-[[4-(3,8-Diazabicyclo[3.2.1]octan-3-yl)-7-(8-ethynyl-7-fluoro-1-naphthyl)-8-fluoro-pyrido[4,3-d]pyrimidin-2-yl]oxymethyl]-1,2,3,5,6,7-hexahydropyrrolizin-3-yl]methyl 4-[3-[3-methyl-1-(1-methyl-2,6-dioxo-3-piperidyl)-2-oxo-benzimidazol-4-yl]propoxy]piperidine-1-carboxylate] |
| < 100 nM | C#Cc1c(F)ccc2cccc(-c3ncc4c(N5CC6CCC(C5)N6)nc(OC[C@@]56CCCN5[C@H](COC(=O)N5CCC(CNC7CCN(Cc8cccc9c8n(C)c(=O)n9C8CCC(=O)NC8=O)CC7)CC5)CC6)nc4c3F)c12 (stereo partly drawn) [Compound 145, [(3S,8S)-8-[[4-(3,8-Diazabicyclo[3.2.1]octan-3-yl)-7-(8-ethynyl-7-fluoro-1-naphthyl)-8-fluoro-pyrido[4,3-d]pyrimidin-2-yl]oxymethyl]-1,2,3,5,6,7-hexahydropyrrolizin-3-yl]methyl 4-[[[1-[[1-(2,6-dioxo-3-piperidyl)-3-methyl-2-oxo-benzimidazol-4-yl]methyl]-4-piperidyl]amino]methyl]piperidine-1-carboxylate] |
| ≥ 300 nM | C#Cc1c(F)ccc2cccc(-c3ncc4c(N5CC6CCC(C5)N6)nc(OC[C@@]56CCCN5[C@H](COC(=O)NCCCC(=O)N5CCN(c7ccc(N8CCC(=O)NC8=O)cc7)CC5)CC6)nc4c3F)c12 [Compound 146, [(3S,8S)-8-[[4-(3,8-diazabicyclo[3.2.1]octan-3-yl)-7-(8-ethynyl-7-fluoro-1-naphthyl)-8-fluoro-pyrido[4,3-d]pyrimidin-2-yl]oxymethyl]-1,2,3,5,6,7-hexahydropyrrolizin-3-yl]methylN-[4-[4-[4-(2,4-dioxohexahydropyrimidin-1-yl)phenyl]piperazin-1-yl]-4-oxo-butyl]carbamate] |
| ≥ 300 nM | C#Cc1c(F)ccc2cccc(-c3ncc4c(N5CC6CCC(C5)N6)nc(OC[C@@]56CCCN5[C@H](COC(=O)NCCCCC(=O)N5CCN(c7ccc(N8CCC(=O)NC8=O)cc7)CC5)CC6)nc4c3F)c12 [Compound 147, [(3S,8S)-8-[[4-(3,8-Diazabicyclo[3.2.1]octan-3-yl)-7-(8-ethynyl-7-fluoro-1-naphthyl)-8-fluoro-pyrido[4,3-d]pyrimidin-2-yl]oxymethyl]-1,2,3,5,6,7-hexahydropyrrolizin-3-yl]methyl N-[5-[4-[4-(2,4-dioxohexahydropyrimidin-1-yl)phenyl]piperazin-1-yl]-5-oxo-pentyl]carbamate] |
| ≥ 300 nM | C#Cc1c(F)ccc2cccc(-c3ncc4c(N5CC6CCC(C5)N6)nc(OC[C@@]56CCCN5[C@H](COC(=O)NCCCCCC(=O)N5CCN(c7ccc(N8CCC(=O)NC8=O)cc7)CC5)CC6)nc4c3F)c12 [Compound 148, ((3S,7aS)-7a-(((4-(3,8-Diazabicyclo[3.2.1]octan-3-yl)-7-(8-ethynyl-7-fluoronaphthalen-1-yl)-8-fluoropyrido[4,3-d]pyrimidin-2-yl)oxy)methyl)hexahydro-1H-pyrrolizin-3-yl)methyl(6-(4-(4-(2,4-dioxotetrahydropyrimidin-1(2H)-yl)phenyl)piperazin-1-yl)-6-oxohexyl)carbamate] |
| ≥ 300 nM | C#Cc1c(F)ccc2cccc(-c3ncc4c(N5CC6CCC(C5)N6)nc(OC[C@@]56CCCN5[C@H](COC(=O)NCCCCCCC(=O)N5CCN(c7ccc(N8CCC(=O)NC8=O)cc7)CC5)CC6)nc4c3F)c12 [Compound 149, [(3S,8S)-8-[[4-(3,8-Diazabicyclo[3.2.1]octan-3-yl)-7-(8-ethynyl-7-fluoro-1-naphthyl)-8-fluoro-pyrido[4,3-d]pyrimidin-2-yl]oxymethyl]-1,2,3,5,6,7-hexahydropyrrolizin-3-yl]methyl N-[7-[4-[4-(2,4-dioxohexahydropyrimidin-1-yl)phenyl]piperazin-1-yl]-7-oxo-heptyl]carbamate] |

These compounds were tested against T2, KRAS in AGS cells (KRAS G12D mutant cell line) or LS180 cells (KRAS G12D mutant cell line) (Homo sapiens, UniProt P01116, G12D) (assay: KRAS Western Blot (WB) assay). Conditions: KRAS degradation, 24 hours incubation, normalized to β-actin.
T2 construct: CRL-187 (LS180) (so in the source); host or cells: AGS or LS180 cells
Type: cell-based
Protocol: Day 1. Seeded AGS cells (KRAS G12D mutant cell line, ATCC, CRL-1739) or LS180 cells (KRAS G12D mutant cell line, ATCC, CRL-187) into 6-well plates (cell density: 3×10^5 cells/well/2 ml medium) in Ham's F-12 medium (Invitrogen, 11765-054) or Eagle's Minimum Essential Medium (ATCC, 30-2003) and incubated overnight at 37° C. and 5% CO2.
Day 2. Aspirated 1 ml medium from each well and added 1 ml medium containing DMSO or test compound into the well to achieve the desired final concentration. Mixed well by gentle shaking and incubated for 24 hours.
Day 3. Aspirated media from plates; washed cells with 2 ml 4° C. PBS (Solarbio, P1020-500) and aspirated the PBS. Then added 100 μl 4° C. […] lysis buffer (Boston BioProducts BP-115D) with protease and phosphatase inhibitors at vendor recommended concentrations (Roche 05892791001 and 04906837001) into each well to lyse the cells, and incubated for 20 minutes at 4° C. Cell lysate was collected into 1.5 ml Eppendorf tube, and the lysate was sonicated at 4° C. for 2 minutes (5 second pulse at 30% power with 10 second intermissions). The lysate was centrifuged at 12,000 rpm for 15 minutes at 4° C. The supernatant was transferred to a fresh Eppendorf tube, and protein concentration was quantified using a BCA kit (Solarbio, PC0020-500). Mixed the cell lysate and 5×NuPAGE SDS Loading Buffer (Beyotime, P0015L), and heated at 95° C. for 10 minutes in a heat block. Prepared samples were stored at −80° C. until SDS-PAGE procedure.
Day 4. Loaded 15 μg protein from each sample onto NuPAGE® Novex 4-12% Bis-Tris Midi Gel, 26 W (Invitrogen, WG1403BOX) and ran the gel at 120V for 1.5 hours in 1×NuPAGE® MOPS SDS Running Buffer (Novex, NP0001). Electrotransferred to nitrocellulose membrane using dry transfer method (iBlot 2 Transfer Stacks, nitrocellulose, IB23001) with a program consisting of 20V for 1 minute, 23V for 4 minutes and 25V for 2 minutes. Blocked the membrane with 5% BSA (Solarbio, A8020) in 1×TBST (CST, 9997S) for 1 hour at room temperature. Incubated with KRAS antibody (LSBio, LS-C175665, clone 2C1) at 1:1000 dilution and β-actin antibody at 1:1000 dilution (CST, 4970S) in TBST containing 1% BSA (Solarbio, A8020) at 4° C. overnight.
Day 5. Washed nitrocellulose membrane three times with 1×TBST for 10 minutes each at room temperature. Incubated with fluorescently labeled secondary antibodies at 1:5000 dilution in TBST containing 1% BSA (anti-rabbit IgG, Licor, 926-32211; anti-mouse IgG, LI-COR, 926-68070) for 1 hour at room temperature. Washed membrane three times with TBST, 10 minutes each. Scanned the membrane on LiCOR scanner for fluorescent signal(s) and quantified KRAS bands and β-actin bands for normalization.
The data are reported in Table 2, wherein “A” indicates a DC50 of less than 1 μM; “B” indicates a DC50 of greater than or equal to 1 μM and less than 10 μM; and “C” indicates a DC50 of greater than or equal to 10 μM.

T2 sequence (P01116 1-188 isoform P01116-2 G12D): as above

| DC50 | SMILES |
| --- | --- |
| A (DC50 less than 1 μM) | C#Cc1c(F)ccc2cc(O)cc(-c3ncc4c(N5CC6CCC(C5)N6)nc(OCC56CCCN5[C@H](COC(=O)NCCCCCCCCCNc5cccc7c5C(=O)N(C5CCC(=O)NC5=O)C7=O)CC6)nc4c3F)c12 (mixture of isomers) [Compound 023, (3RS,8RS)-[8-[[4-(3,8-Diazabicyclo[3.2.1]octan-3-yl)-7-(8-ethynyl-7-fluoro-3-hydroxy-1-naphthyl)-8-fluoro-pyrido[4,3-d]pyrimidin-2-yl]oxymethyl]-1,2,3,5,6,7-hexahydropyrrolizin-3-yl]methyl N-[9-[[2-(2,6-dioxo-3-piperidyl)-1,3-dioxo-isoindolin-4-yl]amino]nonyl]carbamate] |
| C (DC50 greater than or equal to 10 μM) | C#Cc1c(F)ccc2cc(O)cc(-c3ncc4c(N5CC6CCC(C5)N6)nc(OC[C@@]56CCCN5[C@H](COC(=O)NCCCc5ccc7c(c5)n(C)c(=O)n7C5CCC(=O)NC5=O)CC6)nc4c3F)c12 (stereo partly drawn) [Compound 001, [(3S,8S)-8-[[4-(3,8-diazabicyclo[3.2.1]octan-3-yl)-7-(8-ethynyl-7-fluoro-3-hydroxy-1-naphthyl)-8-fluoro-pyrido[4,3-d]pyrimidin-2-yl]oxymethyl]-1,2,3,5,6,7-hexahydropyrrolizin-3-yl]methyl N-[3-[1-(2,6-dioxo-3-piperidyl)-3-methyl-2-oxo-benzimidazol-5-yl]propyl]carbamate] |
| C (DC50 greater than or equal to 10 μM) | C#Cc1c(F)ccc2cc(O)cc(-c3ncc4c(N5CC6CCC(C5)N6)nc(OC[C@@]56CCCN5[C@H](COC(=O)NCCc5ccc7c(c5)n(C)c(=O)n7C5CCC(=O)NC5=O)CC6)nc4c3F)c12 (stereo partly drawn) [Compound 002, [(3S,8S)-8-[[4-(3,8-diazabicyclo[3.2.1]octan-3-yl)-7-(8-ethynyl-7-fluoro-3-hydroxy-1-naphthyl)-8-fluoro-pyrido[4,3-d]pyrimidin-2-yl]oxymethyl]-1,2,3,5,6,7-hexahydropyrrolizin-3-yl]methyl N-[2-[1-(2,6-dioxo-3-piperidyl)-3-methyl-2-oxo-benzimidazol-5-yl]ethyl]carbamate] |
